The record followed here is ChEMBL document CHEMBL5380794, “Discovery of a Potent and Selective STAT5 PROTAC Degrader with Strong Antitumor Activity In Vivo in Acute Myeloid Leukemia” (J Med Chem, 2023).

Broadly, the DC50 is the midpoint of the concentration-degradation curve. For orientation: IC50 means the point on the concentration scale where inhibition reaches its midpoint. The half-life is how long it takes for the measured level to halve. What is called CL/F is clearance divided by bioavailability, as obtained after extravascular dosing.

Data set [1] can be described thus: Apparent volume of distribution in SCID mouse at 150 mg/kg, ip. Type of data set: ADME, organism-based. The settings on record: in vivo.
A short description of data set [2]: In vivo induction of degradation of STAT5 in human MV4-11 cells xenografted in SCID mouse assessed as reduction in STAT5 phosphorylation at Y694 residue at 150 mg/kg, ip measured at 24 hrs by immunoblotting analysis. Type of data set: functional. Set-up: scale not given: the % may be the effect or the level left.
For a further data set, the target named is T1, STAT5A/STAT5B (Homo sapiens, UniProt P42229+P51692).
T1 sequence (P42229 whole entry): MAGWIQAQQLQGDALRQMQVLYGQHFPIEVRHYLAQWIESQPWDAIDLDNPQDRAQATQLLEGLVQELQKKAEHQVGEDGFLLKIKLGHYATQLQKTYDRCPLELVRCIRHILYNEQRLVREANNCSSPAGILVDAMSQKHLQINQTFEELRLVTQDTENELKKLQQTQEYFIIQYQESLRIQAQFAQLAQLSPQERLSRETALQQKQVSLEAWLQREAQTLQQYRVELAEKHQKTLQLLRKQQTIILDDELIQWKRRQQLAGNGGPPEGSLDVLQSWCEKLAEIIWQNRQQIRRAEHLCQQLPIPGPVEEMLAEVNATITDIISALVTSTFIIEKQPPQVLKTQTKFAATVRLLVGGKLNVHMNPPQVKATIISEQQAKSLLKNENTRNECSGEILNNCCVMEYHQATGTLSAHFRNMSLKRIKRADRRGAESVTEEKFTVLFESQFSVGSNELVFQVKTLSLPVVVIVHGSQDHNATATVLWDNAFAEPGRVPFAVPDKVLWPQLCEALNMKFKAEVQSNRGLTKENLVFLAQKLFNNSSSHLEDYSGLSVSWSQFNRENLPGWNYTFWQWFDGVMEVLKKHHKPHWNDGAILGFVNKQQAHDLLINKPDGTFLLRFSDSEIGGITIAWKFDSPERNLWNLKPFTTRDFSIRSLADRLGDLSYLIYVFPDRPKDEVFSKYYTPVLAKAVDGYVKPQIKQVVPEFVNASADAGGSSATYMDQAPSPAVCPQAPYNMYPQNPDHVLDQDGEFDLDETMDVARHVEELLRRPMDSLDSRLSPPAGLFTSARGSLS
T1 sequence (P51692 whole entry): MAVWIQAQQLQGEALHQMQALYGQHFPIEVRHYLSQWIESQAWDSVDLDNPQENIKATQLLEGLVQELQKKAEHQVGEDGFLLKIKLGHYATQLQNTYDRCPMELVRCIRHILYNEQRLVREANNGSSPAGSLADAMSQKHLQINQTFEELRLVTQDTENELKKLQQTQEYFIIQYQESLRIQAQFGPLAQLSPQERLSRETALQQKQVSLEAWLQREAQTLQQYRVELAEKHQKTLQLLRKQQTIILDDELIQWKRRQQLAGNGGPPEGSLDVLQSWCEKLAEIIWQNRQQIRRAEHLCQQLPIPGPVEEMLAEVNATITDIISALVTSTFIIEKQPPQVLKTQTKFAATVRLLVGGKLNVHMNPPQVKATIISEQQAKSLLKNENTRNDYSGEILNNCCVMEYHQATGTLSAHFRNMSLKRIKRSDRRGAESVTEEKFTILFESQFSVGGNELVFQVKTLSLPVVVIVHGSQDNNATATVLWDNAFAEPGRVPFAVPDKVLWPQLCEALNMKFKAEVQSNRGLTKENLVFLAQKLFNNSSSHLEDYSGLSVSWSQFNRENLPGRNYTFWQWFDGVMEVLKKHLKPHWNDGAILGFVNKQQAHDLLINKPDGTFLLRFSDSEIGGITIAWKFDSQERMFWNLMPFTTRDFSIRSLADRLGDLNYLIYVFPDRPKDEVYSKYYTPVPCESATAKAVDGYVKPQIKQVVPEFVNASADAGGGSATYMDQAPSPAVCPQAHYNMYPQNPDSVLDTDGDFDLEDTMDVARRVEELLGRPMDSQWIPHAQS
Put plainly: Induction of STAT5A/5B degradation in human BDCM cells measured for 18 hrs by immunoblotting analysis. Type of data set: cell-based.

Data set [3] addresses T2, Signal transducer and activator of transcription 5A (Homo sapiens, UniProt P42229).
T2 sequence (P42229 whole entry): T1 sequence (P42229 whole entry)
Put plainly: Induction of STAT5 degradation in human MV4-11 cells assessed as reduction in phosphorylated STAT5 level measured for 6 hrs by immunoblotting analysis. It is filed as cell-based. A general note: Immunoblotting shows a protein as a band on a membrane.

Data set [4] is described as follows: Antiproliferative activity against human SKNO-1 cells assessed as maximal cell growth inhibition measured for 4 days by celltiter-glo assay relative to control. It is filed as functional. The settings on record: time 4 day. On the technique in general: ATP-based viability assays read luminescence as a measure of living cells.
Data set [5] in a line: Antiproliferative activity against human SKNO-1 cells assessed as cell growth inhibition measured for 4 days by celltiter-glo assay. Conditions: SKNO-1, 96 h.
The target in data set [6] is T2, Signal transducer and activator of transcription 5A. Put plainly: Induction of STAT5 degradation in human Kasumi-3 cells assessed as reduction in phosphorylated STAT5 level measured for 18 hrs by immunoblotting analysis. Type of data set: cell-based.
The next data set has as its system MV4-11. Nature of the data set: Antiproliferative activity against human MV4-11 cells assessed as cell growth inhibition measured for 4 days by celltiter-glo assay. Conditions: MV4-11, 96 h.
In the next data set the test system is SKNO-1. Put plainly: Effect on STAT3 level in human SKNO-1 cells upto 5 uM measured for 18 hrs by Western blot analysis. Type of data set: functional, cell-based.
A short description of data set [7]: Antiproliferative activity against human Kasumi-3 cells assessed as maximal cell growth inhibition measured for 4 days by celltiter-glo assay relative to control. Conditions: time 4 day. It is filed as functional.
A short description of data set [8]: Half life in SCID mouse at 150 mg/kg, ip. It is filed as ADME, organism-based. Conditions: in vivo.
Data set [9] in a line: Clearance in SCID mouse at 150 mg/kg, ip. It is filed as ADME, organism-based. Conditions: in vivo.

Structures are written as SMILES. Activity calls are given as the source filed them. No cut-off for these calls is given here.

For `CN(CCCC#Cc1cccc2c1CN(C1CCC(=O)NC1=O)C2=O)C(=O)CCN(C(=O)[C@@H]1CCCN1C(=O)[C@@H](NC(=O)c1cc2cc(C(F)(F)P(=O)(O)O)ccc2s1)C(C)(C)C)c1ccc(-c2nccs2)cc1` (some centres not stated), the Vz in data set [1] stood at 2.1 L/kg. Further, the Activity in [2] was over 70%. Also, the DC50 at STAT5A/STAT5B came to 410 nM; in [3], 60 nM; in [6], 250 nM. Moreover, the Imax in [4] turned out to be 64%; in data set [7], 72%. Moreover, the results for the IC50 (in data set [5]; in the data set with MV4-11) were 360 nM and 180 nM, respectively. In addition, in the data set with SKNO-1, the result was inactive. This molecule gave a half-life in [8] of 1.9 h. The molecule also had a CL/F in data set [9] of 12.8 mL/min/kg.
